Laboratory results: US8183252B2, “Heterocyclic aspartyl protease inhibitors” (Schering Corporation, priority 2007, dated 2012)
pKi: −log10 of the molar value.

target: T1, human BACE1 (sproBACE1) (Homo sapiens, UniProt P56817); assay: BACE-1 Peptide Hydrolysis Assay (HTRF); format: biochemical; conditions: not given
T1 construct: sBACE1, corresponding to amino acids 1-454; made in house; host or cells: Sf9 insect cells (baculovirus), secreted into the medium
Description: A HindIII/PmeI fragment from pCDNA4-sBACE1myc/His was blunt ended using Klenow and subcloned into the Stu I site of PFASTBACI(A) (Invitrogen). A sBACE1mycHis recombinant bacmid was generated by transposition in DH10Bac cells (GIBCO/BRL). Subsequently, the sBACE1mycHis bacmid construct was transfected into sf9 cells using CellFectin (Invitrogen, San Diego, Calif.) in order to generate recombinant baculovirus. […] Five milliliters of high titer plaque purified sBACEmyc/His virus was used to infect 1 L of logarithmically growing sf9 cells for 72 hours. Intact cells were pelleted by centrifugation at 3000×g for 15 minutes. The supernatant, containing secreted sBACE1, was collected and diluted 50% v/v with 100 mM HEPES, pH 8.0. The diluted medium was loaded onto a Q-sepharose column. The Q-sepharose column was washed with Buffer A (20 mM HEPES, pH 8.0, 50 mM NaCl).
Proteins, were eluted from the Q-sepharose column with Buffer B (20 mM HEPES, pH 8.0, 500 mM NaCl). The protein peaks from the Q-sepharose column were pooled and loaded onto a Ni-NTA agarose column. The Ni-NTA column was then washed with Buffer C (20 mM HEPES, pH 8.0, 500 mM NaCl). Bound proteins were then eluted with Buffer D (Buffer C+250 mM imidazole).
Reactions were initiated by addition of substrate in a 5 μl aliquot resulting in a total volume of 25 μl. After 3 hr at 30° C. reactions were terminated by addition of an equal volume of 2× stop buffer containing 50 mM Tris-HCl pH 8.0, 0.5 M KF, 0.001% Brij-35, 20 μg/ml SA-XL665 (cross-linked allophycocyanin protein coupled to streptavidin; CIS-Bio International, France) (0.5 μg/well). Plates were shaken briefly and spun at 1200×g for 10 seconds to pellet all liquid to the bottom of the plate before the incubation.
Y=Bottom+(Top-Bottom)/(1+10^((LogEC50−X)*Hill Slope)); X is the logarithm of concentration of I, Y is the percent change in ratio and Y starts at bottom and goes to top with a sigmoid shape.

T1 sequence (P56817 22-454): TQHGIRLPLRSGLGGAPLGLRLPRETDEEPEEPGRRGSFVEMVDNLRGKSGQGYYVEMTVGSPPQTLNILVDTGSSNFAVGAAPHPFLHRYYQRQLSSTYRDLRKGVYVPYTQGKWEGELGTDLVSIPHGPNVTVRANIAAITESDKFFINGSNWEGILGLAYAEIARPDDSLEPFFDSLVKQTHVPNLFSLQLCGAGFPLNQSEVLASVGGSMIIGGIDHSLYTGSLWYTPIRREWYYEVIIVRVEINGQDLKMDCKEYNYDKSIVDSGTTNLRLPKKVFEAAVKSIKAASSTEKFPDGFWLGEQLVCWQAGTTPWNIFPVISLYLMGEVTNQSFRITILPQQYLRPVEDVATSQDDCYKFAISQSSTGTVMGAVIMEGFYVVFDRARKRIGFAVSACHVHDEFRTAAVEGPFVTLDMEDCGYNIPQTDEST

Compound | pKi
CC(=O)N1CCC(CN2C(=N)NC(C)(c3cccc(-c4ccoc4)c3)C2=O)CC1 (centres unmarked) | > 5.30

same assay, conditions: read-out: BACE-1 Ki

Compound | pKi
Cc1cncc(-c2cccc(C3(C)NC(=N)N(C)C3=O)c2)c1 (racemic) | > 5.30
CN1OCC(C)(c2cccc(-c3cccc(C#N)c3)c2)NC1=N (centres unmarked) | > 5.30
CN1C(=N)N[C@](C)(c2cccc(-c3ccc4scnc4c3)c2)CC1=O | > 5.30
N=C1NC(c2ccccc2)(c2ccccc2)C(=O)N1Cc1cccnc1 | > 5.30
CCC[C@H]1C(=O)N(C)C(=N)N[C@]1(C)c1cccc(-c2cccc(C#N)c2)c1 | > 5.30
CN1C(=N)N[C@](C)(c2cc(-c3cncnc3)cs2)CC1=O | > 5.30
C[C@H]1C(=O)N(C)C(=N)N[C@]1(C)c1cc(-c2cc(C#N)cc(C#N)c2)cs1 | > 5.30
Cc1cc([C@]2(C)CC(=O)N(C)C(=N)N2)sc1-c1cccc(C#N)c1 | > 5.30
COc1cncc(-c2cccc(C3(C)NC(=N)N(CC4CC(=O)N(c5ccccc5)C4)C3=O)c2)c1 (centres unmarked) | > 5.30
COC1C(=O)N(C)C(=N)NC1(C)c1cc(-c2ccc(F)c(C#N)c2)cs1 (single isomer, unassigned) | > 5.30
CC(C)(C)CC(=O)Nc1cccc(CN2C(=N)NC(c3ccccc3)(c3ccccc3)C2=O)c1 | > 5.30
CN1C(=N)NC(C)(c2cccc(-c3cc(Cl)ccc3CNS(=O)(=O)c3ccccc3)c2)C1=O (centres unmarked) [benzenesulfonamide, N-[[5-chloro-3′-(2-imino-1,4-dimethyl-5-oxo-4-imidazolidinyl)[1,1′-biphenyl]-2-yl]methyl]-] | > 5.30
CCCN(CCC)C(=O)c1ncc(CN2C(=N)NC(c3ccccc3)(c3ccccc3)C2=O)[nH]1 | > 5.30
CN1C(=N)NC(C)(c2cc(-c3cccc(C#N)c3)cs2)C(CC=Cc2ccc(F)cc2)C1=O (centres unmarked) | > 5.30
CN1C(=N)N[C@](C)(c2cc(Br)c(-c3cncc(Br)c3)s2)CC1=O | > 5.30
CCCC(=O)Nc1cccc(CN2C(=N)NC(c3ccccc3)(c3ccccc3)C2=O)c1 [BUTANAMIDE, N-[3-[(2-IMINO-5-OXO-4,4-DIPHENYL-1-IMIDAZOLIDINYL)METHYL]PHENYL]-] | > 5.30
CN1C(=N)NC(C)(c2cccc(-c3cc(Cl)ccc3CNC(=O)c3cccnc3)c2)C1=O (centres unmarked) | > 5.30
N=C1NC(c2ccccc2)(c2ccccc2)C(=O)N1Cc1cccc(NC(=O)c2ccccc2)c1 [BENZAMIDE, N-[3-[(2-IMINO-5-OXO-4,4-DIPHENYL-1-IMIDAZOLIDINYL)METHYL]PHENYL]-] | > 5.30
CN1C(=N)N[C@](C)(c2cc(-c3cccc(C#N)c3)c(Br)s2)CC1=O | > 5.30
CN1C(=N)NC(c2ccccc2)(c2cc(-c3cccc(F)c3)cs2)C1=O (centres unmarked) [5-[4-(3-FLUOROPHENYL)-2-THIENYL]-2-IMINO-3-METHYL-5-PHENYL-4-IMIDAZOLIDINONE] | > 5.30
CCS(=O)(=O)Nc1cccc(CN2C(=N)NC(c3ccccc3)(c3ccccc3)C2=O)c1 | > 5.30
CN1C(=N)NC(c2ccccc2)(c2cccc(NS(C)(=O)=O)c2)C1=O (racemic) | > 5.30
CCN1C(=N)N[C@](C)(c2cc(-c3cccc(C#N)c3)cs2)CC1=O | > 5.30
COc1cccc(-c2cccc(C3(C)CON(C)C(=N)N3)c2)c1 (centres unmarked) | > 5.30
CN1C(=N)NC(C)(c2cc(-c3cccc(C#N)c3)cs2)C(CC=Cc2ccccc2)C1=O (centres unmarked) | > 5.30
COc1cccc(-c2cc(F)cc(C3(c4ccccc4)NC(=N)N(C)C3=O)c2)c1 (racemic) | > 5.30
CCCS(=O)(=O)Nc1cccc(CN2C(=N)NC(c3ccccc3)(c3ccccc3)C2=O)c1 | > 5.30
COc1cccc(-c2sc([C@]3(C)CC(=O)N(C)C(=N)N3)cc2C)c1 | > 5.30
N=C1NC(c2ccccc2)(c2ccccc2)C(=O)N1Cc1ccsc1 | > 5.30
CN1C(=N)N[C@](C)(c2nc(-c3cccc(C#N)c3)cs2)CC1=O | > 5.30

Second part, the compound after the results:

pKi | Compound
> 5.30 | CN1CCC(CN2C(=N)NC(C)(c3cccc(-c4cccc(Cl)c4)c3)C2=O)C1 (centres unmarked)
> 5.30 | CN1C(=N)N[C@](CCc2ccccc2)(C[C@H]2CCC[C@@H](NC3CCCC3)C2)C1=O
> 5.30 | CC1(c2cccc(-c3cccnc3)c2)NC(=N)N(Cc2cccc(N3CCCCS3(=O)=O)c2)C1=O (racemic)
> 5.30 | N=C1NC(c2ccccc2)(c2ccccc2)C(=O)N1C[C@H]1CCCN(S(=O)(=O)C2CC2)C1
> 5.30 | CC1(c2cccc(-c3cccc(Cl)c3)c2)NC(=N)N(CC2CCN(S(=O)(=O)c3ccccc3)C2)C1=O (centres unmarked)
> 5.30 | N=C1NC(c2ccccc2)(c2ccccc2)C(=O)N1CC1CCN(C(=O)C2(c3ccccc3)CC2)CC1
> 5.30 | COc1ccc(S(=O)(=O)N2CCC(CN3C(=N)NC(c4ccccc4)(c4ccccc4)C3=O)CC2)cc1 [piperidine, 4-[(2-imino-5-oxo-4,4-diphenyl-1-imidazolidinyl)methyl]-1-[(4-methoxyphenyl)sulfonyl]-]
> 5.30 | CN1C(=N)N[C@](C)(c2ccc(-c3cccc(C(F)(F)F)c3)s2)[C@@H](C2CC2)C1=O
> 5.30 | N=C1NC(c2cccc(-c3cccc(Cl)c3)c2)(C2CC2)C(=O)N1C1CCOCC1 (centres unmarked) [4-imidazolidinone, 5-(3′-chloro[1,1′-biphenyl]-3-yl)-5-cyclopropyl-2-imino-3-(tetrahydro-2H-pyran-4-yl)-]
> 5.30 | CCN(CCc1cccc(C2(c3ccccc3)NC(=N)N(C)C2=O)c1)S(C)(=O)=O (racemic)
> 5.30 | CCCS(=O)(=O)N1CCC(CN2C(=N)NC(c3ccccc3)(c3ccccc3)C2=O)CC1 [piperidine, 4-[(2-imino-5-oxo-4,4-diphenyl-1-imidazolidinyl)methyl]-1-(propylsulfonyl)-]
> 5.30 | CSc1cccc(-c2cccc([C@@]3(C4CC4)NC(=N)N(C)C3=O)c2)c1
> 5.30 | CN1C(=N)NC(c2cccc(-c3cncc(Br)c3)c2)(C2(C)CC2)C1=O (centres unmarked)
> 5.30 | CN1C(=N)N[C@](CCC2CCCCC2)(C[C@H]2CCC[C@@H](NC(=O)c3cc(Cl)nc(Cl)c3)C2)C1=O
> 5.30 | CN1C(=N)N[C@](C)(C[C@H]2CCC[C@@H](Nc3cnc4ccccc4n3)C2)C1=O
> 5.30 | CN1C(=N)NC(C)(c2ccc(F)c(-c3cccnc3)c2)C1=O (racemic)
> 5.30 | CN1C(=N)N[C@@]2(CCCc3sc(-c4ccc(F)c(C#N)c4)cc32)CC1=O
> 5.30 | CC1(c2cccc(-c3cccc(Cl)c3)c2)NC(=N)N(CC2CCN(C(=O)Cc3ccccc3)C2)C1=O (centres unmarked)
> 5.30 | CN1C(=N)NC(c2cc(-c3cncc(Cl)c3)cs2)(C2CC2)C1=O (centres unmarked)

pKi | Compound
> 5.30 | CCN(CCc1cccc(C2(c3ccccc3)NC(=N)N(C)C2=O)c1)C(C)=O (racemic)
> 5.30 | CCCC(=O)N1CCC[C@@H](CN2C(=N)NC(c3ccccc3)(c3ccccc3)C2=O)C1
> 5.30 | CN1C(=N)N[C@](C)(c2cc(-c3cccnc3F)cs2)[C@@H](C2CC2)C1=O
> 5.30 | CC1(c2cccc(-c3cccc(Cl)c3)c2)NC(=N)N(CC2CCN(S(C)(=O)=O)C2)C1=O (centres unmarked)
> 5.30 | CCS(=O)(=O)N1CCC(CN2C(=N)NC(c3ccccc3)(c3ccccc3)C2=O)CC1 [piperidine, 1-(ethylsulfonyl)-4-[(2-imino-5-oxo-4,4-diphenyl-1-imidazolidinyl)methyl]-]
> 5.30 | CN1C(=N)N[C@](CCC2CCCCC2)(C[C@H]2CCC[C@H](N[C@H]3CCNC3=O)C2)C1=O
> 5.30 | Cc1cccc(-c2cccc(C3(C4CC4)NC(=N)N(C)C3=O)c2)n1 (centres unmarked)
> 5.30 | CC1(c2cccc(-c3cccc(Cl)c3)c2)NC(=N)N(CC2CCN(C(=O)CC3CCCCC3)C2)C1=O (centres unmarked)
> 5.30 | CCC[C@H]1C(=O)N(C)C(=N)N[C@]1(C)c1cc(-c2cccc(C#N)c2)cs1
> 5.30 | CN1C(=N)NC(C)(c2cccc(N3CCC(C#N)C3)c2)CC1=O (centres unmarked)
> 5.30 | CN1C(=N)N[C@](CCC2CCCCC2)(C[C@H]2CCC[C@H](N3CC[C@H](O)C3)C2)C1=O
> 5.30 | CN1C(=N)N[C@](C)(c2scc(C#N)c2Cl)CC1=O
> 5.30 | N=C1NC(c2ccccc2)(c2ccccc2)C(=O)N1CC1CCN(S(=O)(=O)c2ccccc2)CC1 [piperidine, 4-[(2-imino-5-oxo-4,4-diphenyl-1-imidazolidinyl)methyl]-1-(phenylsulfonyl)-]
> 5.30 | CCCn1ncc2ccc([C@]3(C)CC(=O)N(C)C(=N)N3)cc21
> 5.30 | CN1C(=N)N[C@](C)(c2ccc3c(c2)c(Br)cn3C)CC1=O
> 5.30 | C[C@@]1(c2ccc3sccc3c2)CC(=O)N(CCO)C(=N)N1
> 5.30 | CN1C(=N)N[C@](CCC2CCCCC2)(C[C@H]2CCC[C@@H](NC(=O)C3CCCC3)C2)C1=O
> 5.30 | N=C1NC(c2ccccc2)(c2ccccc2)C(=O)N1CC1CCN(S(=O)(=O)c2ccc(OC(F)(F)F)cc2)CC1 [piperidine, 4-[(2-imino-5-oxo-4,4-diphenyl-1-imidazolidinyl)methyl]-1-[[4-(trifluoromethoxy)phenyl]sulfonyl]-]
